Here are results for 1 compound from PMC13053910, “Covalent Protein Inhibitors via Tyrosine and Tryptophan Conjugation with Cyclic Imine Mannich Electrophiles” (Angewandte Chemie (International Ed. in English), 2026).

SMILES strings stand for the structures. Numbering of substitutions follows the chain as printed. Like-named read-outs stand apart in the source and are kept apart here.

The term IC50 denotes the point on the concentration scale where inhibition reaches its midpoint.

One test deals with T1, CBX8 Y39F (Homo sapiens, UniProt Q9HC52, Y39F).
T1 construct: 6His (N); TEV site (ENLYFQG), read by me from the printed insert DNA (N); host or cells: E. coli (BL21 CodonPlus RIL or Rosetta 2), pET-28a(+)
T1 sequence (Q9HC52 11-69 Y39F limits assumed): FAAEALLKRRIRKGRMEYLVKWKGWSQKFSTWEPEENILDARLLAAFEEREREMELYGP
Briefly: Labeling of CBX8 Y39F mutant (gel shift, LC/MS). It counts as binding. Conditions: gel shift and LC/MS, 10 µM each, 37 °C. The protocol:
(§1) Observed masses are shown (expected average mass for CBX8 ChD = 8792 Da). The observed mass difference (913 Da) agrees with the expected mass change of 913 Da. b) Labeled protein was detected by gel shift on 16.5% Tris‐Tricine SDS‐PAGE. […] Gel analysis was conducted on a 2.5% agarose gel in 10 mM sodium borate buffer. […] Assays were conducted using SW2_113 as an FP probe (Figure S20) at 100 nM. All proteins were used at 2 µM in PBS (pH 7), 0.02% Tween 20. Error bars represent SD. […] (μM); no other compound label is printed beside the IC50 lines
We confirmed protein labeling through a gel shift assay on Tris‐Tricine SDS‐PAGE (Figure 5b). […] To validate labeling of the targeted tyrosine residue (Y39), this amino acid was mutated to phenylalanine. […] We additionally confirmed the labeling site as Y39 by trypsin digest and LC‐MS/MS analysis (Figure S9B).
For P2, 10 µM purified CBX ChD was incubated with P2 (10 µM) in PBS buffer (pH 7) at 37 °C or R.T. for 1.5 hours, as well as 12 hours overnight. Samples were precipitated using MeOH and CHCl3 at the volume ratio of MeOH:CHCl3:sample=3:0.5:1, washed twice using cold MeOH, and air dried. Dried protein pellets were resuspended in aqueous buffer (0.1% formic acid, 300 mM ammonium acetate), and protein labeling were characterized and quantitated by ESI LC-MS.
Background: In EMSA bound probe runs differently from free probe, usually more slowly.

A further test concerns the target T2, CBX8 ChD (Homo sapiens, UniProt Q9HC52).
T2 construct: CBX chromodomain constructs (addgene plasmid #25158 (CBX2), and #62514 (CBX8, provided by Cheryl Arrowsmith)); 6His; host or cells: E. coli (BL21 CodonPlus RIL or Rosetta 2)
T2 sequence (Q9HC52 11-69 limits assumed): T1 sequence (Q9HC52 11-69 Y39F limits assumed) with F29Y
Briefly: Time-dependent fluorescence polarization displacement assay, CBX8 ChD. It counts as binding. Conditions: Figure 5d, CBX8 ChD 2 µM, PBS pH 7. On the technique in general: Fluorescence polarisation rises when a labelled molecule tumbles more slowly, as on binding a larger partner.

Another test concerns the target T3, CBX8 ChD Y39F (Homo sapiens, UniProt Q9HC52, Y39F).
T3 construct: 6His (N); TEV site (ENLYFQG), read by me from the printed insert DNA (N); host or cells: E. coli (BL21 CodonPlus RIL or Rosetta 2), pET-28a(+)
T3 sequence (Q9HC52 11-69 Y39F limits assumed): T1 sequence (Q9HC52 11-69 Y39F limits assumed)
Nature of the test: Time-dependent fluorescence polarization displacement assay, CBX8 Y39F. In kind it is binding. The note with it: for IC50: Figure 5d, CBX8 Y39F 2 µM, probe 100 nM. The protocol: as §1
2.2 Fluorescence Displacement Assay to Evaluate Time-dependent potency of Imine Covalent Inhibitors to CBX ChD. Fluorescence polarization (FP) was measured by titration of CBX ChDs (CBX8 ChD/CBX8 ChD Y39F/CBX2 ChD) to a fluoresceine-labelled probe as previously reported ^1. Fluorescence displacement assays were performed in black 384-well plates with optical bottoms. Buffer used in FP assays consists of 100 mM Na2HPO4, 150 mM NaCl, 0.02% Tween 20. […] Two-fold dilutions of covalent inhibitors were used, starting with 100 µM as highest peptide concentration to 0.049 µM as the lowest. Four replicates were tested at each concentration. Fluorescence anisotropy was read at different time points. Raw data were analyzed using GraphPad Prism 7 following a “one site-Fit logIC50” competition model with any outliers (95 % confidence interval) being excluded.
Time-dependent fluorescence displacement assay Fluorescence polarization (FP) was measured by titration of CBX ChDs (CBX8 ChD/CBX8 ChD Y39F/CBX2 ChD) to a fluorescein-labelled probe as previously reported.^8 Fluorescence displacement assays were performed in black 384-well plates with optical bottoms. Buffer used in FP assays consists of 100 mM Na2HPO4, 150 mM NaCl, 0.02% Tween 20. […] Fluorescence anisotropy was read at different time points. […] Raw data were analyzed using GraphPad Prism 7 following a “one site-Fit logIC50” competition model with any outliers (95 % confidence interval) being excluded.

The subject of test [1] is HOXA9 gene expression in THP1 cells. Briefly: qRT-PCR analysis of HOXA9 gene expression in THP1 cells. In kind it is cell-based, Human. Conditions: 10 µM, 48 h. The protocol: Figure 7 Cellular activity of covalent, cyclic imine inhibitors to CBX8. a) qRT‐PCR analysis of HOXA9 gene expression in THP1 cells after 48 h of compound treatment at the indicated dose. N = 3. Error bars represent SD. Statistical significance was calculated using Student's t‐test. ** = p < 0.01, **** = p < 0.0001, b) qRT‐PCR analysis of HOXA9 gene expression in THP1 cells treated with increasing doses of compound for 48 h. N = 3. Error bars represent SD.
Figure S24. Cellular activity of covalent, cyclic imine inhibitors to CBX8. qRT-PCR analysis of HOXA9 gene expression in THP1 cells after 48 h of compound treatment at the indicated dose. N = 3. Error bars represent s.d. Statistical significance determined by Student’s T test. * = p <0.05, ** = p < 0.01, *** = p < 0.001, **** = p < 0.0001.
2.4 Cell Culture Cell line, Media and Culture Conditions HEK293T cells were cultured in Dubecco’s Modified Essential Media (DMEM), 10% fetal bovine serum (FBS, JR Scientific), 1% glutagro (Corning), 1% penicillin/streptomycin (Corning), 1% sodium pyruvate (Corning). Human THP1 cells were cultured in RPMI (Gibco), 10% FBS (J R Scientific), 1% Sodium pyruvate (Invitrogen), 1% Pen/Strep (Invitrogen), 1% Glutamax (Thermo Scientific), 0.1% 2-mercaptoethanol.
Cells were harvested after 48 h for RNA extraction. […] SYBR Green Mastermix (Thermo Scientific) was used for quantitative PCR. […]
Background: Real-time PCR tracks product formation cycle by cycle.

Consider `CC[C@H](C)[C@H](NC(=O)[C@@H](NC(=O)c1ccc(Oc2ccccc2)cc1)C1CCCC1)C(=O)N[C@@H](CCCCN(CC)CCCCCCN1CCN=CC1=O)C(=O)N[C@@H](CO)C(N)=O` [P1b], for which, at CBX8 Y39F, the “labeling of mutant CBX8 Y39F” value is listed as “fails to label”. Moreover, the half-maximal inhibitory concentration (IC50) was found to be 9.9 µM at CBX8 ChD (SW2_113 probe 100 nM, read-out: IC50 at time 0); 2 µM on CBX8 ChD (IC50 at 20 h, probe 100 nM); 12 µM at CBX8 ChD Y39F (read-out: IC50 at time 0); 11 µM on CBX8 ChD Y39F (IC50 at 20 h). The “change in IC50 upon extended incubation” value at CBX8 ChD Y39F (CBX8 Y39F mutant) is “no change in IC50”. For the same compound, in test [1], the “reduction of HOXA9 gene expression (in words)” value was “most effective at reducing HOXA9 gene expression”.
